Assay results published in patent US10597388B2, “Pyridazinone herbicides” (FMC CORPORATION, priority 2014, dated 2020).

Tests used:
Assay in all cases: Test C greenhouse herbicide test, pre- and postemergence
Assay type in all cases: in vivo
[1] = system: barnyardgrass (Echinochloa crus-galli)
How it was run: (§1)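 Two application timings: at sowing into a soil/sand blend, and on 2–18 cm seedlings in peat-vermiculite potting mix. A non-phytotoxic, surfactant-containing solvent carried the compounds. Plants were compared with controls and rated visually on 0–100 after 13–15 d.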

[2] = system: blackgrass (Alopecurus myosuroides)
How it was run: as §1

[3] = system: corn (Zea mays)
How it was run: as §1

[4] = system: crabgrass, large (large crabgrass, Digitaria sanguinalis)
How it was run: as §1

[5] = system: johnsongrass (Sorghum halepense)
How it was run: as §1

[6] = system: lambsquarters (Chenopodium album)
How it was run: as §1

[7] = system: morningglory (Ipomoea coccinea)
How it was run: as §1

[8] = system: nutsedge, yellow (yellow nutsedge, Cyperus esculentus)
How it was run: as §1

[9] = system: pigweed (Amaranthus retroflexus)
How it was run: as §1

[10] = system: ragweed (common ragweed, Ambrosia elatior)
How it was run: as §1

[11] = system: ryegrass, Italian (Italian ryegrass, Lolium multiflorum)
How it was run: as §1

[12] = system: soybean (Glycine max)
How it was run: as §1

[13] = system: velvetleaf (Abutilon theophrasti)
How it was run: as §1

[14] = system: waterhemp (common waterhemp, Amaranthus rudis)
How it was run: as §1

[15] = system: wheat (winter wheat, Triticum aestivum)
How it was run: as §1

[16] = Postemergence, 31 g ai/ha, scale 0 to 100 (0 no effect, 100 complete control)
[17] = Postemergence, 62 g ai/ha, 0 to 100 scale (0 no effect, 100 complete control)
[18] = Postemergence, 250 g ai/ha, scale 0 to 100, 0 no effect, 100 complete control, 13 to 15 d
[19] = Preemergence, 31 g ai/ha, scale 0 to 100, 0 is no effect, 100 is complete control
[20] = Preemergence, 62 g ai/ha, scale 0 to 100, 0 is no effect, 100 is complete control
[21] = Preemergence, 125 g ai/ha, scale 0 to 100, 0 is no effect, 100 is complete control
[22] = Preemergence, 250 g ai/ha, scale 0 to 100, 0 no effect, 100 complete control
[23] = postemergence, 125 g ai/ha, scale 0 to 100, 0 no effect, 100 complete control

## COC(=O)Oc1c(C)nn(C)c(=O)c1-c1ccc(Br)c2ccccc12 [Compound 145]
[1]; [16]
  Plant response rating, Barnyardgrass: 20
[1]; [17]
  Barnyardgrass plant response rating: 15
[1]; Postemergence, 125 g ai/ha, scale 0 to 100, 0 is no effect, 100 is complete control
  Plant response rating, Barnyardgrass: 30
[1]; [18]
  Plant response rating, Barnyardgrass: 70
[1]; [19]
  Plant response rating, Barnyardgrass: 10
[1]; [20]
  Plant response rating, Barnyardgrass: 35
[1]; [21]
  Plant response rating, Barnyardgrass: 75
[1]; [22]
  Barnyardgrass plant response rating: 95
[2]; [16]
  Plant response rating, Blackgrass: 5
[2]; [17]
  Blackgrass plant response rating: 0
[2]; [18]
  Plant response rating, Blackgrass: 90
[2]; [19]
  Plant response rating, Blackgrass: 10
[2]; [20]
  Plant response rating, Blackgrass: 30
[2]; [21]
  Plant response rating, Blackgrass: 60
[2]; [22]
  Blackgrass plant response rating: 60
[2]; [23]
  Blackgrass plant response rating: 30
[3]; [16]
  Plant response rating, Corn: 10
[3]; [17]
  Corn plant response rating: 5
[3]; [18]
  Plant response rating, Corn: 10
[3]; [19]
  Plant response rating, Corn: 0
[3]; [20]
  Plant response rating, Corn: 0
[3]; [21]
  Plant response rating, Corn: 0
[3]; [22]
  Corn plant response rating: 15
[3]; [23]
  Corn plant response rating: 5
[4]; [16]
  Plant response rating, Crabgrass, Large: 15
[4]; [17]
  Crabgrass, Large plant response rating: 10
[4]; [18]
  Plant response rating, Crabgrass, Large: 20
[4]; [19]
  Plant response rating, Crabgrass, Large: 5
[4]; [20]
  Plant response rating, Crabgrass, Large: 50
[4]; [21]
  Plant response rating, Crabgrass, Large: 55
[4]; [22]
  Crabgrass, Large plant response rating: 55
[4]; [23]
  Crabgrass, Large plant response rating: 10
[5]; [16]
  Plant response rating, Johnsongrass: 10
[5]; [17]
  Johnsongrass plant response rating: 10
[5]; [18]
  Plant response rating, Johnsongrass: 20
[5]; [19]
  Plant response rating, Johnsongrass: 10
[5]; [20]
  Plant response rating, Johnsongrass: 5
[5]; [21]
  Plant response rating, Johnsongrass: 5
[5]; [22]
  Johnsongrass plant response rating: 5
[5]; [23]
  Johnsongrass plant response rating: 20
[6]; [16]
  Plant response rating, Lambsquarters: 98
[6]; [17]
  Lambsquarters plant response rating: 98
[6]; [18]
  Plant response rating, Lambsquarters: 100
[6]; [19]
  Plant response rating, Lambsquarters: 90
[6]; [20]
  Plant response rating, Lambsquarters: 90
[6]; [21]
  Plant response rating, Lambsquarters: 100
[6]; [22]
  Lambsquarters plant response rating: 100
[6]; [23]
  Lambsquarters plant response rating: 100
[7]; [16]
  Plant response rating, Morningglory: 95
[7]; [17]
  Morningglory plant response rating: 98
[7]; [18]
  Plant response rating, Morningglory: 100
[7]; [19]
  Plant response rating, Morningglory: 75
[7]; [20]
  Plant response rating, Morningglory: 80
[7]; [21]
  Plant response rating, Morningglory: 98
[7]; [22]
  Morningglory plant response rating: 100
[7]; [23]
  Morningglory plant response rating: 100
[8]; [16]
  Plant response rating, Nutsedge, Yellow: 70
[8]; [17]
  Nutsedge, Yellow plant response rating: 90
[8]; [18]
  Plant response rating, Nutsedge, Yellow: 95
[8]; [19]
  Plant response rating, Nutsedge, Yellow: 35
[8]; [20]
  Plant response rating, Nutsedge, Yellow: 85
[8]; [21]
  Plant response rating, Nutsedge, Yellow: 95
[8]; [22]
  Nutsedge, Yellow plant response rating: 90
[8]; [23]
  Nutsedge, Yellow plant response rating: 85
[9]; [16]
  Plant response rating, Pigweed: 70
[9]; [17]
  Pigweed plant response rating: 100
[9]; [18]
  Plant response rating, Pigweed: 100
[9]; [19]
  Plant response rating, Pigweed: 70
[9]; [20]
  Plant response rating, Pigweed: 98
[9]; [21]
  Plant response rating, Pigweed: 100
[9]; [22]
  Pigweed plant response rating: 100
[9]; [23]
  Pigweed plant response rating: 75
[10]; [16]
  Plant response rating, Ragweed: 0
[10]; [17]
  Ragweed plant response rating: 0
[10]; [18]
  Plant response rating, Ragweed: 25
[10]; [19]
  Plant response rating, Ragweed: 55
[10]; [20]
  Plant response rating, Ragweed: 65
[10]; [21]
  Plant response rating, Ragweed: 85
[10]; [22]
  Ragweed plant response rating: 90
[10]; [23]
  Ragweed plant response rating: 5
[11]; [16]
  Plant response rating, Ryegrass, Italian: 5
[11]; [17]
  Ryegrass, Italian plant response rating: 15
[11]; [18]
  Plant response rating, Ryegrass, Italian: 40
[11]; [19]
  Plant response rating, Ryegrass, Italian: 100
[11]; [20]
  Plant response rating, Ryegrass, Italian: 100
[11]; [21]
  Plant response rating, Ryegrass, Italian: 100
[11]; [22]
  Ryegrass, Italian plant response rating: 100
[11]; [23]
  Ryegrass, Italian plant response rating: 30
[12]; [16]
  Plant response rating, Soybean: 40
[12]; [17]
  Soybean plant response rating: 40
[12]; [18]
  Plant response rating, Soybean: 70
[12]; [19]
  Plant response rating, Soybean: 0
[12]; [20]
  Plant response rating, Soybean: 55
[12]; [21]
  Plant response rating, Soybean: 75
[12]; [22]
  Soybean plant response rating: 80
[12]; [23]
  Soybean plant response rating: 55
[13]; [16]
  Plant response rating, Velvetleaf: 85
[13]; [17]
  Velvetleaf plant response rating: 90
[13]; [18]
  Plant response rating, Velvetleaf: 100
[13]; [19]
  Plant response rating, Velvetleaf: 40
[13]; [20]
  Plant response rating, Velvetleaf: 85
[13]; [21]
  Plant response rating, Velvetleaf: 95
[13]; [22]
  Velvetleaf plant response rating: 100
[13]; [23]
  Velvetleaf plant response rating: 98
[14]; [16]
  Plant response rating, Waterhemp: 95
[14]; [17]
  Waterhemp plant response rating: 100
[14]; [18]
  Plant response rating, Waterhemp: 100
[14]; [19]
  Plant response rating, Waterhemp: 85
[14]; [20]
  Plant response rating, Waterhemp: 98
[14]; [21]
  Plant response rating, Waterhemp: 98
[14]; [22]
  Waterhemp plant response rating: 100
[14]; [23]
  Waterhemp plant response rating: 100
[15]; [16]
  Plant response rating, Wheat: 40
[15]; [17]
  Wheat plant response rating: 50
[15]; [18]
  Plant response rating, Wheat: 90
[15]; [19]
  Plant response rating, Wheat: 0
[15]; [20]
  Plant response rating, Wheat: 0
[15]; [21]
  Plant response rating, Wheat: 0
[15]; [22]
  Wheat plant response rating: 5
[15]; [23]
  Wheat plant response rating: 85
